Legend:
[1] = degradation time in vivo of ω-oxidation blocked analogue
Text: ω-oxidation is believed to be the main pathway for degradation of the fatty acid entities as described with a block in the X position. Experiments were thus performed where R′ was changed to block ω-oxidation, by introducing a triple bond at the methyl end of the fatty acid analogue. […] This is important for the use of the fatty acid entities in pharmaceutical preparation, as it may potentiate the effects of the β-oxidizable fatty acid entities by further slowing down their breakdown.

[2] = system: mitochondrial β-oxidation in the liver; experiment: activity of mitochondrial β-oxidation in the liver of fatty acid analogues; assay type: biochemical
Text: Although all fatty acid anagoges with an odd positioning of the β-oxidation blocker X away from the carboxylic end block β-oxidation, the extent of their biological effect may be variable. This is due to the difference in biological degradation time of the various compounds. The inventors have done experiments to show the effect of moving X further from the carboxylic fatty acid end. In these experiments the activity (in nmol/min/mg/protein) of mitochondrial β-oxidation in the liver of fatty acid analogues was measured with sulphur in the 3, 5 and 7 positions relative to the carboxyl end. The activities were 0.81 for sulphur in the 3rd position, 0.61 for sulphur in the 5th position, 0.58 for sulphur in the 7th position, and 0.47 for palmitic acid, the non β-oxidation blocking control. […] However, as the decline is great for going from the 3rd to 5th position, but small going from the 5th to 7th position, it is reasonable to assume that this decline will continue to be less as one moves out the chain and thus that it will be very far out indeed before no effect (compared to the control) is seen at all.

SMILES | degradation time in vivo [1] | activity of mitochondrial β-oxidation in the liver [2]
CC#CCCCCCCCCCCCSCC [3-thia-15-heptadecyn] | substantially increased degradation time in vivo | 
CCCCCCCCCCCCCCCC(=O)O [palmitic acid] |  | 0.47 nmol/min/mg/protein
